In patent publication US12415785B2, “Compound modulators of sting” (CTXT PTY LTD, priority 2019, dated 2025) one finds EC50 and ΔTm data, which are given here for twelve molecules.

Assay [1] deals with human HAQ isoform of STING (THP-1 STING Lucia ISG cells) (Homo sapiens (Human), UniProt Q86WV6, G230A/H232R/R293Q/R71H). The experiment in a line: THP-1 STING Lucia ISG reporter cell line assay. The following applies: 24 h incubation, QUANTI-Luc luminescence. It is filed as cell-based. The procedure:
(§1) THP-1 STING Lucia ISG cells (InvivoGen #thpI-isg) were cultured in RPMI-1640 containing 2 mM L-glutamine, 25 mM HEPES, 100 μg/mL Normocin (InvivoGen) and 10% heat-inactivated FBS. Cells were seeded at a density of 7×10^5 cells/mL, maintained at 37° C./5% CO2, and passaged every 3-4 days. Selection pressure was maintained by the addition of 100 μg/mL Zeocin every second passage.
(§2) Assay conditions: cells were harvested and resuspended at a concentration of 5×10^5 cells/mL in fresh growth media. Of this cell preparation 20 μL per well was dispensed into 384 well cell culture plates (Greiner, #781098X) and incubated at 37° C./5% CO2 for 2 hours. Concentration Response Curves (commonly 11 doses) were prepared by 2.5 fold serial dilution starting from 10 mM compound stock solution in DMSO. Compound dilutions were transferred into the cell culture plates using a pintool (0.1 μL transfer), control wells were matched for DMSO. Positive control wells received ML RR—S2 CDA (Med Chem Express HY12885B) in 5 μL of media to a final concentration of 40 μM. All other wells received additional 5 μL of media only to equalise volume. The plates were incubated for 24 h at 37° C./5% CO2.
(§3) For the detection step, QUANTI-Luc (InvivoGen #rep-qlc1) was prepared according to manufacturer's instruction and 10 μL were added per well to the culture plates. Plates were shaken for ten seconds on an orbital shaker and left in the dark at room temperature for two minutes, before luminescence was read on a Perkin Elmer Envision plate reader.
(§4) Data analysis: Luminescence raw data was normalised % activity relative to the signal of the positive control wells and negative control wells which were not treated with compound. The following formula was used to calculate normalised % activity from raw signals: % activity=(sample−negative)/(positive−negative)
(§5) The THP-1 STING Lucia ISG cell EC50 provides an assessment of activity at the human HAQ isoform of STING. For assessing compound activity against the WT human STING isoform, an equivalent method was conducted where the cells used were THP-1-Dual KI-hSTING-R232 (InvivoGen #thpd-r232).

In the next assay the target is human STING (HAQ) (Homo sapiens, UniProt Q86WV6, G230A/H232R/R293Q). The assay can be described thus: Differential scanning fluorimetry (DSF), huSTING (HAQ). It is filed as binding. The following applies: read-out: DSF huSTING (HAQ) ΔTm (° C.). The protocol:
(§6) Biophysical experiments were performed with three different recombinant human STING protein variants designated according to allelic nomenclature of Yi et al., (2013). […] These were ligated into a modified pET43a E. coli expression vector designed to encode N-terminal His tag followed by tobacco etch virus protease (TEV) cleavage site and a STING gene sequence. The resulting protein sequences for the three allelic variants are listed below: […] Cultures were then cooled to 16° C. and protein expression induced by the addition of isopropyl β-D-1-thiogalactopyranoside to a final concentration of 0.5 mM and the cultures shaken overnight for further 16 hours. Following expression, cell cultures were centrifuged at 5000×g for 20 min and cell pellet stored frozen at −70° C. Protein purification was initiated by thawing the cell pellet in Lysis buffer (25 mM Tris-HCl pH 8.0, 300 mM NaCl, 5 mM DTT, 2 mM MgCl2, 10 mM imidazole, 0.5 mg/ml lysozyme, benzonase endonuclease [EMD Millipore], 1 mM PMSF, complete protease inhibitor tablets EDTA-free [Roche]) using a ratio of 7 ml of buffer per 1 g of cells. Cells were further lysed by 3 passes through an ice cooled Avestin C5 cell crusher and then centrifuged at 48,000×g at 4° C. […] The IMAC column was then sequentially washed with IMAC Wash buffer 1 and IMAC Wash buffer 2 (25 mM Tris-HCl pH 8.0, 300 mM NaCl, 5 mM DTT, 20 mM Imidazole) and bound His-TEV-hSTING protein eluted with IMAC Elution buffer (25 mM Tris-HCl pH 8.0, 300 mM NaCl, 5 mM DTT, 250 mM Imidazole). […] Differential scanning fluorimetry (DSF) is a rapid screening method for identifying low-molecular-weight ligands that bind and, in doing so, stabilize (or sometimes destabilize) purified proteins (Niesen 2007). DSF monitors thermal unfolding of protein in the presence of a fluorescent dye and is typically performed using a real-time PCR instrument. The temperature at which a protein unfolds is measured by an increase in the fluorescence of a dye with affinity for hydrophobic parts of the protein that are gradually being exposed during unfolding. The fluorescence of the dye is quenched in aqueous environments, but when the dye associates with hydrophobic sites on unfolded protein, its fluorescence increases. The fluorescence intensity is plotted as a function of the temperature, generating a sigmoidal curve that can be described by a two-state transition. The inflection point of the transition curve (Tm) is calculated using simple equations such as that of Boltzmann. Thermal stability of STING protein (with and without bound ligand) was measured using previously described methodology (Seabrook & Newman, 2013), with samples tested in triplicate using 96-well PCR microplate (AB Gene, ABGAB-0600/W). […] Sealed plates were placed into Bio-Rad CFX96/C1000 thermocycler and FRET scanning mode (λ^excitation of 490 nm and reads at a λ^emission of 570 nm). Melting curves were recorded from 20° C. to 100° C. in 0.5° C. increments every 30 seconds with a read at each increment. Data were analysed using “Meltdown analysis” protocol described by Rosa (2015).

The target in the next assay is human STING (WT) (Homo sapiens (Human), UniProt Q86WV6, H232R). The experiment in a line: Differential scanning fluorimetry (DSF), huSTING (WT). It is filed as binding. Particulars: read-out: DSF huSTING (WT) ΔTm (° C.). The procedure:
as §6

Assay [2] deals with WT human STING isoform (THP-1-Dual KI-hSTING-R232 cells) (Homo sapiens (Human), UniProt Q86WV6, H232R). The experiment in a line: THP-1-Dual KI-hSTING-R232 reporter cell line assay. Particulars: 24 h incubation, QUANTI-Luc luminescence. It is filed as cell-based. The protocol:
as §1, §2, §3, §4, §5

[3] abbreviates: 2 μM protein, compound 100 μM, Tm with ligand minus Tm of protein alone (1% DMSO).

Read-outs that look alike come from different tables or passages of the source.

Chain of human STING (HAQ) (Q86WV6 whole entry G230A/H232R/R293Q, looked up): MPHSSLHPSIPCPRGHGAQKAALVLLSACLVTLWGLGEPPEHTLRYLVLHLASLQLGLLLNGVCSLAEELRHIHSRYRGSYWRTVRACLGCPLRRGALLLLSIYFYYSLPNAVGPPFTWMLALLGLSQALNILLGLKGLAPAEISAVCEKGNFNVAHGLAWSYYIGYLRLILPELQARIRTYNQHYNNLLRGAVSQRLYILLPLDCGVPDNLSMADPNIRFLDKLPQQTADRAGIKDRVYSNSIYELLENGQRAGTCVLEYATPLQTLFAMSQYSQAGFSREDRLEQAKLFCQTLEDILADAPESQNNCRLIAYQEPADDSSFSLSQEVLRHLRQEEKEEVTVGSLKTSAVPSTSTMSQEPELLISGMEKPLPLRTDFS
Chain of WT human STING isoform (THP-1-Dual KI-hSTING-R232 cells) (Q86WV6 whole entry H232R, canonical isoform): as the sequence (Q86WV6 whole entry G230A/H232R/R293Q, looked up) above, with A230G, Q293R counted along it
Chain of human STING (WT) (Q86WV6 other isoform, or with tags, fused parts or gaps, stated change not applied): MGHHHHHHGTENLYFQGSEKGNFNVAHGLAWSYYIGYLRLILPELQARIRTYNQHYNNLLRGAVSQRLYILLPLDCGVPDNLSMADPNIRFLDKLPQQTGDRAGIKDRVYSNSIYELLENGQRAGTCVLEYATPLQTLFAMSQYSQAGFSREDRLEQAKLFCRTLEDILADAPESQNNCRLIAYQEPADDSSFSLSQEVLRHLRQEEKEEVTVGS
Chain of human HAQ isoform of STING (THP-1 STING Lucia ISG cells) (Q86WV6 whole entry R71H/G230A/H232R/R293Q, canonical isoform): as the sequence (Q86WV6 whole entry G230A/H232R/R293Q, looked up) above, with R71H counted along it

In the case of `COc1c(C(N)=O)ccc2c1nc(-c1cccc(Cl)c1-c1nn[nH]n1)n2CCn1c(-c2cccc(Cl)c2-c2nn[nH]n2)nc2c(OC)c(C(N)=O)ccc21` [Example 40, 1,1′-(Ethane-1,2-diyl)bis(2-(3-chloro-2-(2H-tetrazol-5-yl)phenyl)-4-methoxy-1H-benzo[d]imidazole-5-carboxamide)], the EC50 in assay [1] and in assay [2] was greater than 40 µM each time. The thermal shift (ΔTm) at 100 µM was -1.74 °C at human STING (HAQ) (setting [3]) and -7.45 °C at human STING (WT) (setting [3]).
On to `COc1c(C(N)=O)ccc2c1nc(-c1cc(F)c(F)cc1C(=O)O)n2CCn1c(-c2cc(F)c(F)cc2C(=O)O)nc2c(OC)c(C(N)=O)ccc21` [Example 15, 6,6′-(Ethane-1,2-diylbis(5-carbamoyl-4-methoxy-1H-benzo[d]imidazole-1,2-diyl))bis(3,4-difluorobenzoic acid)], for which the figures for the EC50 in assay [1] and in assay [2] were 2.56 µM and 2.46 µM, respectively. Also, the results for the ΔTm at 100 µM at human STING (HAQ) and at human STING (WT) were 4.78 °C and -0.91 °C, respectively.
Take `COc1ccc(-c2nc3c(OC)c(C(N)=O)ccc3n2CCn2c(-c3ccc(OC)cc3C(=O)O)nc3c(OC)c(C(N)=O)ccc32)c(C(=O)O)c1` [Example 41, 6,6′-(Ethane-1,2-diylbis(5-carbamoyl-4-methoxy-1H-benzo[d]imidazole-1,2-diyl))bis(3-methoxybenzoic acid)]: the EC50 in assay [1] and in assay [2] was greater than 40 µM each time. In addition, the ΔTm at 100 µM on human STING (HAQ) (setting [3]) was determined as 4.52 °C; at human STING (WT) (setting [3]), 1.09 °C.
Consider `COc1c(C(N)=O)ccc2c1nc(-c1ccc(C)cc1C(=O)O)n2CCn1c(-c2ccc(C)cc2C(=O)O)nc2c(OC)c(C(N)=O)ccc21` [Example 25, 6,6′-(Ethane-1,2-diylbis(5-carbamoyl-4-methoxy-1H-benzo[d]imidazole-1,2-diyl))bis(3-methylbenzoic acid)], for which the concentration for a half-maximal effect (EC50) in assay [1] came out at 2.96 µM; in assay [2], 3.2 µM. In addition, the figures for the ΔTm at 100 µM on human STING (HAQ) (setting [3]) and at human STING (WT) (setting [3]) were -15.6 °C and -18.4 °C, respectively.
The like results for `COc1c(C(N)=O)ccc2c1nc(-c1c(F)cc(Cl)cc1C(=O)O)n2CCn1c(-c2c(F)cc(Cl)cc2C(=O)O)nc2c(OC)c(C(N)=O)ccc21` [Example 11, 2,2′-(ethane-1,2-diylbis(5-carbamoyl-4-methoxy-1H-benzo[d]imidazole-1,2-diyl))bis(5-chloro-3-fluorobenzoic acid)] were, in that order, 0.83 µM, 0.683 µM, 22.1 °C and 10.6 °C.
In the case of `NC(=O)c1ccc2c(c1)nc(-c1cc(Br)ccc1C(=O)O)n2CCn1c(-c2cc(Br)ccc2C(=O)O)nc2cc(C(N)=O)ccc21` [Example 3, 2,2′-(Ethane-1,2-diylbis(5-carbamoyl-1H-benzo[d]imidazole-1,2-diyl))bis(4-bromobenzoic acid)], the EC50 in assay [1] and in assay [2] was greater than 40 µM throughout. The ΔTm at 100 µM is 2.66 °C on human STING (HAQ) (setting [3]) and -0.02 °C at human STING (WT) (setting [3]).
Turning to `COc1c(C(N)=O)ccc2c1nc(-c1c(F)cccc1C(=O)O)n2CCn1c(-c2c(F)cccc2C(=O)O)nc2c(OC)c(C(N)=O)ccc21` [Example 10, 2,2′-(Ethane-1,2-diylbis(5-carbamoyl-4-methoxy-1H-benzo[d]imidazole-1,2-diyl))bis(3-fluorobenzoic acid)], the EC50 in assay [1] came to 1.59 µM; in assay [2], 1.39 µM. Besides, the ΔTm at 100 µM is 18.4 °C on human STING (HAQ) (setting [3]) and 9.63 °C on human STING (WT) (setting [3]).
Regarding `COc1c(C(N)=O)ccc2c1nc(-c1ccc(Cl)cc1-c1noc(=O)[nH]1)n2CCn1c(-c2ccc(Cl)cc2-c2noc(=O)[nH]2)nc2c(OC)c(C(N)=O)ccc21` [Example 32, 1,1′-(Ethane-1,2-diyl)bis(2-(4-chloro-2-(5-oxo-4,5-dihydro-1,2,4-oxadiazol-3-yl)phenyl)-4-methoxy-1H-benzo[d]imidazole-5-carboxamide)], the EC50 was greater than 40 µM in assay [1] and 29.7 µM in assay [2]. Besides, the ΔTm at 100 µM worked out at 3.99 °C at human STING (HAQ) (setting [3]) and 0.51 °C at human STING (WT) (setting [3]).
Take `COc1c(C(N)=O)ccc2c1nc(-c1ccc(Cl)cc1C(=O)O)n2CCCn1c(-c2ccc(Cl)cc2C(=O)O)nc2c(OC)c(C(N)=O)ccc21` [Example 35, 6,6′-(Propane-1,3-diylbis(5-carbamoyl-4-methoxy-1H-benzo[d]imidazole-1,2-diyl))bis(3-chlorobenzoic acid)]: the half-maximal effective concentration (EC50) in assay [1] and in assay [2] was greater than 40 µM each time. Moreover, the ΔTm at 100 µM is 1.28 °C at human STING (HAQ) (setting [3]) and -2.51 °C at human STING (WT) (setting [3]).
For the molecule `COc1c(C(N)=O)ccc2c1nc(-c1c(F)cc(F)cc1C(=O)O)n2CCn1c(-c2c(F)cc(F)cc2C(=O)O)nc2c(OC)c(C(N)=O)ccc21` [Example 16, 2,2′-(Ethane-1,2-diylbis(5-carbamoyl-4-methoxy-1H-benzo[d]imidazole-1,2-diyl))bis(3,5-difluorobenzoic acid)], the EC50 in assay [1] was found to be 0.738 µM; in assay [2] it was 0.84 µM. For the same molecule, the ΔTm at 100 µM on human STING (HAQ) (setting [3]) came out at 17.2 °C; at human STING (WT) (setting [3]), 7.95 °C.
The corresponding values for `COc1c(C(N)=O)ccc2c1nc(-c1c(Cl)cccc1C(=O)O)n2CCn1c(-c2c(Cl)cccc2C(=O)O)nc2c(OC)c(C(N)=O)ccc21` (racemic) [Example 22, 2,2′-(Ethane-1,2-diylbis(5-carbamoyl-4-methoxy-1H-benzo[d]imidazole-1,2-diyl))bis(3-chlorobenzoic acid)] are 1.53 µM, 1.45 µM, 28.2 °C and 17 °C.
As to `COc1c(C(N)=O)ccc2c1nc(-c1c(F)cc(F)cc1-c1nn[nH]n1)n2CCn1c(-c2c(F)cc(F)cc2-c2nn[nH]n2)nc2c(OC)c(C(N)=O)ccc21` [Example 43, 1,1′-(Ethane-1,2-diyl)bis(2-(2,4-difluoro-6-(2H-tetrazol-5-yl)phenyl)-4-methoxy-1H-benzo[d]imidazole-5-carboxamide)], the concentration for a half-maximal effect (EC50) in assay [1] was 0.574 µM; in assay [2] it was 0.44 µM. Moreover, the ΔTm at 100 µM was found to be 22.2 °C at human STING (HAQ) (setting [3]) and 9.87 °C on human STING (WT) (setting [3]).

What is called EC50 is the midpoint of the concentration-response curve. As a reminder, the ΔTm is the shift of the melting midpoint relative to a reference.
